Results: the supplement of paper PMC10307832

Key:
Assay in all cases: relative viability (nuclei count vs DMSO), 5 days (fraction); higher = more cells survive
Seliciclib + AZD7762 = compound: CC[C@H](CO)Nc1nc(NCc2ccccc2)c2ncn(C(C)C)c2n1 [Seliciclib] + NC(=O)Nc1cc(-c2cccc(F)c2)sc1C(=O)N[C@H]1CCCNC1 [AZD7762] (partner 0.2 µM)
Method in brief: (§1)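 After 5 days of treatment, lung cancer cells in 1536-well plates were fixed and stained in a single step (final 0.05% Triton X-100, 1% formaldehyde, 1 ug/ml Hoechst) and their nuclei counted on 4× images. Treatment had been applied by pin tool the day after seeding as one drug alone or as a fixed anchor-drug dose with five library-drug doses (not always all listed) in √10 steps. Relative viability is the nuclei count of treated wells divided by that of vehicle wells, and values are medians of duplicate plates.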

Seliciclib + Tozasertib = compound: CC[C@H](CO)Nc1nc(NCc2ccccc2)c2ncn(C(C)C)c2n1 [Seliciclib] + Cc1cc(Nc2cc(N3CCN(C)CC3)nc(Sc3ccc(NC(=O)C4CC4)cc3)n2)n[nH]1 [Tozasertib] (partner 0.1 µM)
Method in brief: as §1

Seliciclib + Decitabine = compound: CC[C@H](CO)Nc1nc(NCc2ccccc2)c2ncn(C(C)C)c2n1 [Seliciclib] + Nc1ncn([C@H]2C[C@H](O)[C@@H](CO)O2)c(=O)n1 [Decitabine] (partner 2 µM)
Method in brief: as §1

Seliciclib + Bortezomib = compound: CC[C@H](CO)Nc1nc(NCc2ccccc2)c2ncn(C(C)C)c2n1 [Seliciclib] + CC(C)C[C@H](NC(=O)[C@H](Cc1ccccc1)NC(=O)c1cnccn1)B(O)O [Bortezomib] (partner 0.002 µM)
Method in brief: as §1

| Cell Line | relative viability (Seliciclib + AZD7762; first compound 0.08 µM) | relative viability (Seliciclib + AZD7762; first compound 0.253 µM) | relative viability (Seliciclib + AZD7762; first compound 0.8 µM) | relative viability (Seliciclib + AZD7762; first compound 2.53 µM) | relative viability (Seliciclib + AZD7762; first compound 8 µM) | relative viability (Seliciclib + Tozasertib; first compound 0.08 µM) | relative viability (Seliciclib + Tozasertib; first compound 0.253 µM) | relative viability (Seliciclib + Tozasertib; first compound 0.8 µM) | relative viability (Seliciclib + Tozasertib; first compound 2.53 µM) | relative viability (Seliciclib + Tozasertib; first compound 8 µM) | relative viability (Seliciclib + Decitabine; first compound 0.08 µM) | relative viability (Seliciclib + Decitabine; first compound 0.253 µM) | relative viability (Seliciclib + Decitabine; first compound 0.8 µM) | relative viability (Seliciclib + Decitabine; first compound 2.53 µM) | relative viability (Seliciclib + Decitabine; first compound 8 µM) | relative viability (Seliciclib + Bortezomib; first compound 0.08 µM) | relative viability (Seliciclib + Bortezomib; first compound 0.253 µM) | relative viability (Seliciclib + Bortezomib; first compound 0.8 µM) | relative viability (Seliciclib + Bortezomib; first compound 2.53 µM) | relative viability (Seliciclib + Bortezomib; first compound 8 µM) |
| --- | --- | --- | --- | --- | --- | --- | --- | --- | --- | --- | --- | --- | --- | --- | --- | --- | --- | --- | --- | --- |
| 201T | 0.578 | 0.534 | 0.69 | 0.622 | 0.734 | 0.948 | 0.959 | 0.893 | 0.964 | 0.745 | 0.827 | 0.893 | 0.857 | 0.806 | 0.728 | 1.12 | 1.18 | 1.07 | 1.1 | 1.01 |
| NCI-H1915 | 0.714 | 0.591 | 0.826 | 0.817 | 0.717 | 0.486 | 0.437 | 0.43 | 0.444 | 0.315 | 0.252 | 0.264 | 0.277 | 0.243 | 0.255 | 0.961 | 1.05 | 0.951 | 0.987 | 0.743 |
| NCI-H2009 | – | – | – | – | – | 0.767 | 0.742 | 0.809 | 0.69 | 0.635 | 0.378 | 0.42 | 0.402 | 0.371 | 0.415 | 1.05 | 1.21 | 0.908 | 0.911 | 0.941 |
| BEN | 0.808 | 0.584 | 0.694 | 0.672 | 0.61 | 0.451 | 0.481 | 0.585 | 0.502 | 0.468 | 0.738 | 0.739 | 0.761 | 0.698 | 0.622 | 0.871 | – | 0.82 | 0.701 | 0.659 |
